{
  "source": "patent US9567336B2",
  "about": "“Conjugated TLR7 and/or TLR8 and TLR2 agonists” (CAYLA, priority 2012, dated 2017)",
  "key": {"murine TLR7": {"target": "T1, murine TLR7 (Mus musculus, UniProt P58681)", "T1 construct": "host or cells: HEK293 (HEK-Blue mTLR7)", "T1 sequence (P58681 27-1050)": "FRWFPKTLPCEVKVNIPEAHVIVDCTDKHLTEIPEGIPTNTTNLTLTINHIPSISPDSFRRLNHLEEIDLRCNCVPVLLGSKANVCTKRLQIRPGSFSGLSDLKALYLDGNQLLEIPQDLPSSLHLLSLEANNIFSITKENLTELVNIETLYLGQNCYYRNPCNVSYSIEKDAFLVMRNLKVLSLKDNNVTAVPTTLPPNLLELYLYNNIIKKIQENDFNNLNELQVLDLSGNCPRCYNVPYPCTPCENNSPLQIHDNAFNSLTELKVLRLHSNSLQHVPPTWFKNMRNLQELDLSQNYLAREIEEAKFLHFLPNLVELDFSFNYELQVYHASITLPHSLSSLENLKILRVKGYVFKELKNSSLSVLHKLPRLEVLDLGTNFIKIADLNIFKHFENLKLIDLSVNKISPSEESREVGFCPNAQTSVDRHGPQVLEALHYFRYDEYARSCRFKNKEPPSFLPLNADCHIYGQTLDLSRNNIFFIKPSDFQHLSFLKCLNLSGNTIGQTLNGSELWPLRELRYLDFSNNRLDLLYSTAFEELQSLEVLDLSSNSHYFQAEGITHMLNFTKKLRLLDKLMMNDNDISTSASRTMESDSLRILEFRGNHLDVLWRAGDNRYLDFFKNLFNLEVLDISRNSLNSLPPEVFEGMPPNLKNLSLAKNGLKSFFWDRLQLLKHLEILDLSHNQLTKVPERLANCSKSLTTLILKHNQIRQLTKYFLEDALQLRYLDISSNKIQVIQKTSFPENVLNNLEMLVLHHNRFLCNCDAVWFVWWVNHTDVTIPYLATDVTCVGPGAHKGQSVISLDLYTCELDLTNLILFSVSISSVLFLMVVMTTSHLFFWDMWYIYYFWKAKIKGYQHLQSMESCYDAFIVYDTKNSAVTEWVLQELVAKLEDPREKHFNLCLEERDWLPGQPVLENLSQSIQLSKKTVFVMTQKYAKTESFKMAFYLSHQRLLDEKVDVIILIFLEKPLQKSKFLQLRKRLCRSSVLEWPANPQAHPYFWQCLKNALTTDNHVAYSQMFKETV", "experiment": "HEK-Blue mTLR7 NF-κB/AP-1 SEAP reporter cell assay", "format": "cell-based", "details": "HEK-Blue mTLR7 reporter cells, 10 μg/mL to 10 pg/ml, 24 hours, OD at 655 nm; FIGS. 2A, 2B", "procedure": "(§1) Some conjugated compounds of the invention were tested for their ability to activate TLR7 and TLR2 receptor signaling. Cell-based assays were carried out using TLR7 and TLR2 reporter cell lines (InvivoGen). The reporter cell lines are engineered HEK293 cells, a human embryonic kidney cell line (ATCC, CRL-1573) that stably express either murine TLR7 (HEK-Blue™ mTLR7) or human TLR7 (HEK-Blue™ hTLR7) or murine TLR2 (HEK-Blue™ mTLR2) or human TLR2 (HEK-Blue™ hTLR2) with an NF-κB-inducible secreted embryonic alkaline phosphatase (SEAP) as the reporter gene. The SEAP reporter gene is placed under the control of the NF-κB and AP-inducible promoter. Stimulation with the corresponding TLR ligand activates NF-κB and AP-1, which induces the production of SEAP. Detection of SEAP is measured following culturing cells in HEK-Blue™ Detection media (InvivoGen). HEK-Blue™ Detection contains a SEAP substrate, which upon hydrolysis by SEAP produces a colorimetric change allowing for detection of SEAP as the protein is secreted. […] These assays were carried out using RAW-Blue™ Cells (InvivoGen), derived from RAW 264.7 mouse leukemic monocytic macrophage cell line (ATCC, CRL 2278) stably overexpressing a NF-κB/AP-1 inducible SEAP reporter constructs.\n(§2) To perform the assay, cells were seeded on 96 well microliter plates at 50,000 or 100,000 cells per well for HEK-Blue™ Cells and RAW-Blue™ Cells respectively, and cultured at 37° C. in the presence of the conjugated compounds. The conjugated compounds were prepared as follows: First, stock solutions of the small molecule conjugated compounds of the invention were prepared in ethanol or water to a concentration of 10 mg/ml. A working dilution of the conjugated TLR7-TLR2 small molecules was made up in water and added to cells at a final range of concentrations from 10 μg/mL to 10 pg/ml. The working dilutions of the conjugated TLR7-TLR2 small molecules as the stated concentrations were directly added to the reporter cell lines and incubated at 37° C. for 24 hours. After 24 hours of incubation, the effect on reporter gene activity was determined by reading the OD at 655 nm using iMark™ Microplate Reader (BIO-RAD).\n(§3) The conjugated compounds were tested alone for their ability to specifically activate TLR7 and TLR2, alongside the known TLR7 activators R848 or CL264 (InvivoGen) and the TLR2 agonists Pam2CSK4 or Pam3CSK4 (InvivoGen). The specificity of the TLR activity was determined by use of reporter cell lines to the other TLRs (data not shown). […] The molecules show a tendency to activate mouse TLR7 with greater sensitivity than human TLR7. […] Furthermore, dose-dependent responses of the conjugated compounds indicate significant TLR activities of TLR7 and TLR2 compared to the corresponding controls."}, "[1]": {"tested_on": "NF-κB in RAW-Blue™ Cells (RAW 264.7, endogenous TLR7 and TLR2)", "experiment": "RAW-Blue Cells NF-κB/AP-1 inducible SEAP reporter assay", "format": "cell-based, mouse", "details": "murine monocytic macrophage cell line RAW 264.7, 24 hours, OD at 655 nm; FIGS. 5A, 5B", "procedure": "as §1, §2, §3"}, "murine TLR2": {"target": "T2, murine TLR2 (Mus musculus, UniProt Q9QUN7)", "T2 construct": "host or cells: HEK293 (HEK-Blue mTLR2)", "T2 sequence (Q9QUN7 25-784)": "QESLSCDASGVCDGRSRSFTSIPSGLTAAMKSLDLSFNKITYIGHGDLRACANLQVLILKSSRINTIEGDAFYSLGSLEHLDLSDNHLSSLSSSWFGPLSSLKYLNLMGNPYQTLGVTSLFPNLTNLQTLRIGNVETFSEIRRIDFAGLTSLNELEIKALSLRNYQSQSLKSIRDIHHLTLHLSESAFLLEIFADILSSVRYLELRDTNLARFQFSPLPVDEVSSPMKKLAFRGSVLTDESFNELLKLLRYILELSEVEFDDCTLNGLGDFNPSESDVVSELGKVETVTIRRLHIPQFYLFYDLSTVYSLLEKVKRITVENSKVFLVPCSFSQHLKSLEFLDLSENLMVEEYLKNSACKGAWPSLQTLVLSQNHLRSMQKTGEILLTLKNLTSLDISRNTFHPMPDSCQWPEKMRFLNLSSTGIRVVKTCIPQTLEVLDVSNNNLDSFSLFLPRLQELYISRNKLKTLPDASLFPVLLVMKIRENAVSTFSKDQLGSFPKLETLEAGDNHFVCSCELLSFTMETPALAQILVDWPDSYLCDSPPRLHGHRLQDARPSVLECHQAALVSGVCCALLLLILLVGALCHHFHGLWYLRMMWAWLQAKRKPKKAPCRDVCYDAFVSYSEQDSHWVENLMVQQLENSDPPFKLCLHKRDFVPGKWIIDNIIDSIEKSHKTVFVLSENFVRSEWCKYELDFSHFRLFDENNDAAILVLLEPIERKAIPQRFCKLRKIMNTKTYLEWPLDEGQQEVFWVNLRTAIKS", "experiment": "HEK-Blue mTLR2 NF-κB/AP-1 SEAP reporter cell assay", "format": "cell-based", "details": "HEK-Blue mTLR2 reporter cells, 10 μg/mL to 10 pg/ml, 24 hours, OD at 655 nm; FIG. 4", "procedure": "as §1, §2, §3"}},
  "data": [
    {"smiles": "CCCCCCCCCCCCCCCC(=O)OCC(CSC[C@H](N)C(=O)Nc1ccc(Cn2c(O)nc3c(N)nc(NCCCC)nc32)cc1)OC(=O)CCCCCCCCCCCCCCC", "note": "(mixture of isomers) [CL401, (R)-3-(2-amino-3-(4-((6-amino-2-(butylamino)-8-hydroxy-9H-purin-9-yl)methyl)phenylamino)-3-oxopropylthio)propane-1,2-diyl dipalmitate]", "values": [
      {"measurement": "ability to activate TLR7 receptors (murine TLR7)", "setting": "murine TLR7", "result": "activate TLR7 receptors"},
      {"measurement": "induction of NF-κB in RAW-Blue cells", "setting": "[1]", "result": "activate NF-κB"},
      {"measurement": "ability to activate TLR2 receptor (murine TLR2)", "setting": "murine TLR2", "result": "activate TLR2 receptor"}
    ]}
  ]
}
